Laboratory results taken from patent US10131652B2, “Pyrimidinyloxy benzene derivatives as herbicides” (E. I. DU PONT DE NEMOURS AND COMPANY, priority 2014, dated 2018).
Read-outs that look alike come from different tables or passages of the source.

Experiments:
Assay in all cases: Test E pre-/postemergence plant response
Assay type in all cases: in vivo
[1] = test system: oilseed rape (Brassica napus); conditions: scale 0 to 100, read-out: Plant response rating, Oilseed Rape; for plant injury at 16 g/ha: 16 g ai/ha; for plant injury at 31 g/ha: 31 g ai/ha; for plant injury at 62 g/ha: 62 g ai/ha; for plant injury at 125 g/ha: 125 g ai/ha
How it was run: (§1)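 Visual scores on a 0–100 scale (100 = complete control) were assigned against untreated controls 7–21 days after treatment in a controlled environment. Compounds, formulated with solvent plus surfactant, were applied to pre-emergence silt-loam sowings or to 1- to 4-leaf plants (2–18 cm) in potting medium.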

[2] = test system: green foxtail (Setaria viridis); conditions: scale 0 to 100, read-out: Plant response rating, Foxtail, Green; for pest or weed control at 16 g/ha: 16 g ai/ha; for pest or weed control at 31 g/ha: 31 g ai/ha; for pest or weed control at 62 g/ha: 62 g ai/ha; for pest or weed control at 125 g/ha: 125 g ai/ha
How it was run: as §1

[3] = test system: spring wheat (Triticum aestivum); conditions: scale 0 to 100, read-out: Plant response rating, Wheat, Spring; for plant injury at 16 g/ha: 16 g ai/ha; for plant injury at 62 g/ha: 62 g ai/ha; for plant injury at 125 g/ha: 125 g ai/ha
How it was run: as §1

kochia (Kochia scoparia) = conditions: Bassia scoparia, scale 0 to 100, read-out: Plant response rating, Kochia; for pest or weed control at 16 g/ha: 16 g ai/ha; for pest or weed control at 31 g/ha: 31 g ai/ha; for pest or weed control at 62 g/ha: 62 g ai/ha; for pest or weed control at 125 g/ha: 125 g ai/ha
How it was run: as §1

[4] = test system: wild mustard (Sinapis arvensis); conditions: Brassica, scale 0 to 100, read-out: Plant response rating, Mustard, Wild; for pest or weed control at 16 g/ha: 16 g ai/ha; for pest or weed control at 31 g/ha: 31 g ai/ha; for pest or weed control at 62 g/ha: 62 g ai/ha; for pest or weed control at 125 g/ha: 125 g ai/ha
How it was run: as §1

[5] = test system: chamomile (scentless chamomile, Matricaria inodora); conditions: Tripleurospermum inodorum, scale 0 to 100, read-out: Plant response rating, Chamomile; for pest or weed control at 16 g/ha: 16 g ai/ha; for pest or weed control at 31 g/ha: 31 g ai/ha; for pest or weed control at 62 g/ha: 62 g ai/ha; for pest or weed control at 125 g/ha: 125 g ai/ha
How it was run: as §1

[6] = test system: speedwell (bird's-eye speedwell, Veronica persica); conditions: scale 0 to 100, read-out: Plant response rating, Speedwell; for pest or weed control at 16 g/ha: 16 g ai/ha; for pest or weed control at 62 g/ha: 62 g ai/ha; for pest or weed control at 125 g/ha: 125 g ai/ha
How it was run: as §1

[7] = test system: winter wheat (Triticum aestivum); conditions: scale 0 to 100, read-out: Plant response rating, Wheat, Winter; for plant injury at 16 g/ha: 16 g ai/ha; for plant injury at 62 g/ha: 62 g ai/ha; for plant injury at 125 g/ha: 125 g ai/ha
How it was run: as §1

[8] = test system: field poppy (Papaver rhoeas); conditions: scale 0 to 100, read-out: Plant response rating, Field Poppy; for pest or weed control at 16 g/ha: 16 g ai/ha; for pest or weed control at 31 g/ha: 31 g ai/ha; for pest or weed control at 62 g/ha: 62 g ai/ha; for pest or weed control at 125 g/ha: 125 g ai/ha
How it was run: as §1

[9] = test system: downy bromegrass (Bromus tectorum); conditions: scale 0 to 100, read-out: Plant response rating, Bromegrass, Downy; for pest or weed control at 16 g/ha: 16 g ai/ha; for pest or weed control at 31 g/ha: 31 g ai/ha; for pest or weed control at 62 g/ha: 62 g ai/ha; for pest or weed control at 125 g/ha: 125 g ai/ha
How it was run: as §1

[10] = test system: bluegrass (annual bluegrass, Poa annua); conditions: scale 0 to 100, read-out: Plant response rating, Bluegrass; for pest or weed control at 16 g/ha: 16 g ai/ha; for pest or weed control at 31 g/ha: 31 g ai/ha; for pest or weed control at 62 g/ha: 62 g ai/ha; for pest or weed control at 125 g/ha: 125 g ai/ha
How it was run: as §1

[11] = post-emergence, 31 g ai/ha, Postemergence

FC(F)c1cc(-c2ccccc2Oc2ncc(Br)cn2)no1 [Compound 62, 5-bromo-2-[2-[5-(difluoromethyl)-3-isoxazolyl]phenoxy]pyrimidine]
30%: plant injury at 62 g/ha ([7]; post-emergence, Postemergence)
55%: pest or weed control at 31 g/ha ([8]; post-emergence, Postemergence) | pest or weed control at 62 g/ha ([10]; post-emergence, Postemergence)
35%: plant injury at 125 g/ha ([7]; post-emergence, Postemergence) | pest or weed control at 31 g/ha ([10]; post-emergence, Postemergence)
25%: plant injury at 31 g/ha ([1]; pre-emergence, Preemergence) | pest or weed control at 62 g/ha ([2]; post-emergence, Postemergence) | plant injury at 62 g/ha ([3]; post-emergence, Postemergence) | pest or weed control at 16 g/ha ([4]; pre-emergence, Preemergence)
85%: pest or weed control at 125 g/ha ([2]; pre-emergence, Preemergence) | pest or weed control at 62 g/ha (kochia (Kochia scoparia); pre-emergence, Preemergence)
10%: plant injury at 16 g/ha ([1]; pre-emergence, Preemergence) | plant injury at 125 g/ha ([3]; pre-emergence, Preemergence) | pest or weed control at 125 g/ha ([5]; post-emergence, Postemergence) | plant injury at 16 g/ha ([7]; post-emergence, Postemergence) | pest or weed control at 16 g/ha ([9]; post-emergence, Postemergence) | pest or weed control at 62 g/ha ([9]; pre-emergence, Preemergence) | pest or weed control at 16 g/ha ([10]; post-emergence, Postemergence) | pest or weed control at 62 g/ha ([10]; pre-emergence, Preemergence)
15%: pest or weed control at 16 g/ha ([2]; post-emergence, Postemergence) | pest or weed control at 31 g/ha ([9]; post-emergence, Postemergence)
40%: pest or weed control at 31 g/ha ([2]; pre-emergence, Preemergence) | plant injury at 125 g/ha ([3]; post-emergence, Postemergence) | pest or weed control at 16 g/ha ([8]; post-emergence, Postemergence) | pest or weed control at 125 g/ha ([9]; post-emergence, Postemergence)
0%: plant injury at 16 g/ha ([3]; pre-emergence, Preemergence) | plant injury at 62 g/ha ([3]; pre-emergence, Preemergence) | pest or weed control at 16 g/ha (kochia (Kochia scoparia); pre-emergence, Preemergence) | pest or weed control at 16 g/ha ([5]; post-emergence, Postemergence) | pest or weed control at 16 g/ha ([5]; pre-emergence, Preemergence) | plant injury at 16 g/ha ([7]; pre-emergence, Preemergence) | plant injury at 62 g/ha ([7]; pre-emergence, Preemergence) | pest or weed control at 16 g/ha ([9]; pre-emergence, Preemergence) | pest or weed control at 31 g/ha ([9]; pre-emergence, Preemergence) | pest or weed control at 16 g/ha ([10]; pre-emergence, Preemergence)
100%: plant injury at 125 g/ha ([1]; post-emergence, Postemergence) | plant injury at 125 g/ha ([1]; pre-emergence, Preemergence) | pest or weed control at 125 g/ha (kochia (Kochia scoparia); pre-emergence, Preemergence) | pest or weed control at 31 g/ha ([4]; post-emergence, Postemergence) | pest or weed control at 62 g/ha ([4]; post-emergence, Postemergence) | pest or weed control at 125 g/ha ([4]; post-emergence, Postemergence) | pest or weed control at 125 g/ha ([4]; pre-emergence, Preemergence) | pest or weed control at 62 g/ha ([6]; post-emergence, Postemergence) | pest or weed control at 125 g/ha ([6]; post-emergence, Postemergence) | pest or weed control at 125 g/ha ([6]; pre-emergence, Preemergence) | pest or weed control at 62 g/ha ([8]; pre-emergence, Preemergence) | pest or weed control at 125 g/ha ([8]; pre-emergence, Preemergence)
75%: pest or weed control at 31 g/ha (kochia (Kochia scoparia); post-emergence, Postemergence) | pest or weed control at 16 g/ha ([4]; post-emergence, Postemergence) | pest or weed control at 125 g/ha ([8]; post-emergence, Postemergence) | pest or weed control at 31 g/ha ([8]; pre-emergence, Preemergence) | pest or weed control at 125 g/ha ([10]; pre-emergence, Preemergence)
80%: plant injury at 31 g/ha ([1]; post-emergence, Postemergence) | plant injury at 62 g/ha ([1]; post-emergence, Postemergence) | pest or weed control at 31 g/ha ([4]; pre-emergence, Preemergence)
20%: pest or weed control at 31 g/ha ([2]; post-emergence, Postemergence) | pest or weed control at 16 g/ha ([2]; pre-emergence, Preemergence) | plant injury at 31 g/ha [3, 11] | plant injury at 31 g/ha [7, 11] | pest or weed control at 62 g/ha ([9]; post-emergence, Postemergence) | pest or weed control at 125 g/ha ([9]; pre-emergence, Preemergence)
65%: plant injury at 16 g/ha ([1]; post-emergence, Postemergence) | plant injury at 62 g/ha ([1]; pre-emergence, Preemergence) | pest or weed control at 125 g/ha ([2]; post-emergence, Postemergence) | pest or weed control at 62 g/ha ([2]; pre-emergence, Preemergence) | pest or weed control at 16 g/ha (kochia (Kochia scoparia); post-emergence, Postemergence) | pest or weed control at 31 g/ha ([5]; pre-emergence, Preemergence) | pest or weed control at 125 g/ha ([5]; pre-emergence, Preemergence) | pest or weed control at 16 g/ha ([8]; pre-emergence, Preemergence)
5%: plant injury at 16 g/ha ([3]; post-emergence, Postemergence) | pest or weed control at 31 g/ha (kochia (Kochia scoparia); pre-emergence, Preemergence) | pest or weed control at 31 g/ha ([5]; post-emergence, Postemergence) | pest or weed control at 62 g/ha ([5]; post-emergence, Postemergence) | plant injury at 125 g/ha ([7]; pre-emergence, Preemergence) | pest or weed control at 31 g/ha ([10]; pre-emergence, Preemergence)
70%: pest or weed control at 16 g/ha ([6]; post-emergence, Postemergence) | pest or weed control at 62 g/ha ([8]; post-emergence, Postemergence)
90%: pest or weed control at 62 g/ha (kochia (Kochia scoparia); post-emergence, Postemergence)
60%: pest or weed control at 62 g/ha ([5]; pre-emergence, Preemergence) | pest or weed control at 125 g/ha ([10]; post-emergence, Postemergence)
95%: pest or weed control at 125 g/ha (kochia (Kochia scoparia); post-emergence, Postemergence) | pest or weed control at 62 g/ha ([4]; pre-emergence, Preemergence) | pest or weed control at 31 g/ha [6, 11] | pest or weed control at 16 g/ha ([6]; pre-emergence, Preemergence) | pest or weed control at 62 g/ha ([6]; pre-emergence, Preemergence)
